Earlier results, collected in patent publication US20120322868A1, “FOOD PRODUCTS, PREPARATION, AND THERAPEUTIC METHODS” (priority 2010, published 2012).

What was measured:
[1] = test system: cancer; conditions: dietary protein, laboratory animals (Campbell)
[2] = test system: insulin levels and insulin sensitivity; conditions: hyperinsulinemic patients with polycystic ovary syndrome
[3] = test system: immunological functions and plasma albumin; conditions: HIV+ patients
[4] = test system: atherosclerosis; conditions: apolipoprotein E-deficient mice

## casein
[1]
  promotion of cancer: promotes cancer

## CC(=O)N[C@@H](CS)C(=O)O [NAC, N-acetyl-L-cysteine]
[2]
  insulin levels and insulin sensitivity: improves insulin levels and insulin sensitivity
[3]
  immunological functions and plasma albumin concentrations: marked increase
[4]
  atherosclerosis: reduce atherosclerosis
